Data: patent publication US12649733B2, “3,6-diamino-pyridazin-3-yl derivatives, pharmaceutical compositions containing them and their uses as pro-apoptotic agents” (LES LABORATOIRES SERVIER, priority 2019, dated 2026)

Assays:
MOLT-4 cells = assay: MOLT-4 cell viability, MTT assay; format: cell-based; settings: Homo sapiens, MOLT-4, 48 h, 48 h exposure
How it was run: (§1)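 Cells grown in RPMI 1640 with 10% heat-inactivated FBS at 37° C, 5% CO2, exposed 48 h to nine 3.16-fold serial compound dilutions in triplicate. MTT added for 4 h, SDS/HCl solubilisation overnight, absorbance at 540 nm; IC50 by four-parameter fit.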

BCLXL [1] = molecular target: T1, BCLXL (Homo sapiens, UniProt Q07817, V10N/V9A); assay: AlphaLISA assay (BIM peptide displacement); format: binding; settings: 20 pM protein, 1 nM peptide
Experimental: AlphaLISA assay measures an increase in alpha signal upon binding biotinylated GST(1-218)-(FACTOR_XA)-hs ? (2-209)(SEQ ID:02—GST UniProtKB® primary accession number P08515 and BCLXL UniProtKB® primary accession number Q07817-1) coupled to a Streptavidin labeled Alpha donor bead to N-terminally labeled peptide derived from BIM (Fluorescein-betaAla-Ahx-SEQID:05, wherein SEQ ID:05 is […]) coupled to an Anti-FTIC AlphaLISA acceptor bead.
GST(1-218)(FACTOR_XA)-hs ? (2-209) was biotinylated in 50 mM phosphate buffer using a 20 fold excess of EZ Link NHS-LC-Biotin (thermoFisher catalogue number 21336) overnight at 4° C.
The addition of a compound which binds competitively to the same site as the peptide will result in an decrease in the Alpha signal of the available donor bead-protein-peptide-acceptor bead complex due to displacement of the peptide.
An 11-point serial dilution of each compound was prepared in DMSO, the final buffer conditions were 10 mM 4-(2-hydroxyethyl)-1-piperazineethanesulfonic acid [HEPES], 150 mM NaCl, 0.05% Tween 20, pH 7.4 and 4% DMSO. The final protein concentration in the assay was 20 pM with the peptide present at 1 nM). Alpha beads were used at a final concentration of 5 ug/mL. The experiments were incubated for overnight at 23° C. after acceptor bead addition. Finally the donor bead is added and incubated for 2 hours at 23° C. before Alpha signal measured on a Biotek Synergy2 plate reader (Excitation 680 nm, emission 615 nm).

BCLXL [2] = molecular target: T1, BCLXL; assay: Fluorescence polarisation assay (PUMA-based probe displacement); format: binding; note: 20 nM protein, 10 nM fluorescent probe
H146 cells = assay: H146 cell viability, MTT assay; format: cell-based; settings: Homo sapiens, NCI-H146, 48 h, 48 h exposure
How it was run: as §1

T1 sequence (Q07817 with tags, fused parts or gaps V9A/V10N): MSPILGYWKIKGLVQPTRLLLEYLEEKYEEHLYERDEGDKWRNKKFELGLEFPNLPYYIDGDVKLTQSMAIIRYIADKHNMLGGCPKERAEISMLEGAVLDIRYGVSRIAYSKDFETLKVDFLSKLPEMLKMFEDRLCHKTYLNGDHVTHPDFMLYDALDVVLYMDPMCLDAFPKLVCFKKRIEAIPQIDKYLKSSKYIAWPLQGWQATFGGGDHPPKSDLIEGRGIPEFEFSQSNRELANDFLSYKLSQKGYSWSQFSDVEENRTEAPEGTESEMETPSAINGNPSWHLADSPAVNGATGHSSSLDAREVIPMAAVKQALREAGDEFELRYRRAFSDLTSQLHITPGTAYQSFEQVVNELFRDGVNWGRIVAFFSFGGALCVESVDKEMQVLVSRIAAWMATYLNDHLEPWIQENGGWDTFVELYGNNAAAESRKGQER

Compound | IC50 (MOLT-4 cells) [nM] | IC50 (BCLXL [1]) [nM] | Ki (BCLXL [2]) [nM] | IC50 (H146 cells) [nM]
COCCCN(c1cc(C)c(Nc2nc3ccccc3s2)nn1)c1nc(C(=O)O)c(CCCOc2ccccc2)s1 [Example 65, 2-{[6-[(1,3-Benzothiazol-2-yl)amino]-5-methylpyridazin-3-yl}(3-methoxypropyl)amino)-5-(3-phenoxypropyl)-1,3-thiazole-4-carboxylic acid] | 236 | 1 | < 1 | 865
Cc1cc(N(C)c2nc(C(=O)O)c(C3CCN(C(=O)c4ccccc4)CC3)s2)nnc1Nc1nc2ccccc2s1 [Example 89, 5-(1-Benzoylpiperidin-4-yl)-2-({6-[(1,3-benzothiazol-2-yl)amino]-5-methylpyridazin-3-yl}(methyl)amino)-1,3-thiazole-4-carboxylic acid] | 13100 | 150 | 160 | > 15000
Cc1cc(N(C)c2nc(C(=O)O)c(C3CCN(S(=O)(=O)c4ccccc4)CC3)s2)nnc1Nc1nc2ccccc2s1 [Example 92, 5-[1-(Benzenesulfonyl)piperidin-4-yl]-2-({6-[(1,3-benzothiazol-2-yl)amino]-5-methylpyridazin-3-yl}(methyl)amino)-1,3-thiazole-4-carboxylic acid] | > 15000 | 46 | 68 | > 15000
COCC(O)CCN(c1cc(C)c(Nc2nc3ccccc3s2)nn1)c1nc(C(=O)O)cs1 (stereo not drawn) [Example 93, 2-[[6-(1,3-Benzothiazol-2-ylamino)-5-methyl-pyridazin-3-yl]-(3-hydroxy-4-methoxy-butyl)amino]thiazole-4-carboxylic acid] | 9400 | 6.4 | 6.8 | > 15000
Cc1cc(N(C)c2nc(C(=O)O)c(C3CCN(S(C)(=O)=O)CC3)s2)nnc1Nc1nc2ccccc2s1 [Example 94, 2-({6-[(1,3-Benzothiazol-2-yl)amino]-5-methylpyridazin-3-yl}(methyl)amino)-5-(1-methanesulfonylpiperidin-4-yl)-1,3-thiazole-4-carboxylic acid] | ≥ 10000 | 51 | 67 | 4070
Cc1cc(N(C)c2nc(C(=O)O)c(C3CCN(S(=O)(=O)Cc4ccccc4)CC3)s2)nnc1Nc1nc2ccccc2s1 [Example 95, 2-({6-[(1,3-Benzothiazol-2-yl)amino]-5-methylpyridazin-3-yl}(methyl)amino)-5-(1-phenylmethanesulfonylpiperidin-4-yl)-1,3-thiazole-4-carboxylic acid] | 5010 | 22 | 24 | 9270
COC(CO)CCN(c1cc(C)c(Nc2nc3ccccc3s2)nn1)c1nc(C(=O)O)cs1 (stereo not drawn) [Example 98, 2-[[6-(1,3-Benzothiazol-2-ylamino)-5-methyl-pyridazin-3-yl]-(4-hydroxy-3-methoxy-butyl)amino]thiazole-4-carboxylic acid] | > 15000 | 1.8 | 2.3 | > 15000
CNCC#Cc1ccc(OCCCc2sc(N(CCCC(O)CO)c3cc(C)c(Nc4nc5ccccc5s4)nn3)nc2C(=O)O)c(F)c1 (stereo not drawn) [Example 119, 2-[[6-(1,3-Benzothiazol-2-ylamino)-5-methyl-pyridazin-3-yl]-(4,5-dihydroxypentyl)amino]-5-[3-[2-fluoro-4-[3-(methylamino)prop-1-ynyl]phenoxy]propyl]thiazole-4-carboxylic acid] | 97.4 | 0.006 | < 1 | 21.4
Cc1cc(N(CCC(O)CO)c2nc(C(=O)O)c(CCCOc3ccc(C#CCN(C)C)cc3F)s2)nnc1Nc1nc2ccccc2s1 (stereo not drawn) [Example 123, 2-[[6-(1,3-Benzothiazol-2-ylamino)-5-methyl-pyridazin-3-yl]-(3,4-dihydroxybutyl)amino]-5-[3-[4-[3-(dimethylamino)prop-1-ynyl]-2-fluoro-phenoxy]propyl]thiazole-4-carboxylic acid] | 16.5 | 0.004 | < 1 | 6.25
CNCC#Cc1ccc(OCCCc2sc(N(CCCO)c3cc(C)c(Nc4nc5ccccc5s4)nn3)nc2C(=O)O)c(F)c1 [Example 127, 2-[[6-(1,3-Benzothiazol-2-ylamino)-5-methyl-pyridazin-3-yl]-(3-hydroxypropyl)amino]-5-[3-[2-fluoro-4-[3-(methylamino)prop-1-ynyl]phenoxy]propyl]thiazole-4-carboxylic acid] | 11.3 | 0.0066 | < 1 | 9.04
Cc1cc(N(CCCCO)c2nc(C(=O)O)c(CCCOc3ccc(C#CC[N+](C)(C)CCCS(=O)(=O)[O-])cc3F)s2)nnc1Nc1nc2ccccc2s1 [Example 130, 3-[3-[4-[3-[2-[[6-(1,3-Benzothiazol-2-ylamino)-5-methyl-pyridazin-3-yl]-(4-hydroxybutyl)amino]-4-carboxy-thiazol-5-yl]propoxy]-3-fluoro-phenyl]prop-2-ynyl-dimethyl-ammonio]propane-1-sulfonate] | 108 | 0.0054 | < 1 | 201
Cc1cc(N(C)c2nc(C(=O)O)c(CC3(COc4ccc(C#CCN(C)C)cc4F)CC3)s2)nnc1Nc1nc2ccccc2s1 [Example 140, 2-({6-[(1,3-Benzothiazol-2-yl)amino]-5-methylpyridazin-3-yl}(methyl)amino)-5-{[1-({4-[3-(dimethylamino)prop-1-yn-1-yl]-2-fluorophenoxy}methyl)cyclopropyl]methyl}-1,3-thiazole-4-carboxylic acid] | 23.4 | 0.024 | < 1 | 142

More lines, now with the values ahead:

IC50 (MOLT-4 cells) [nM] | IC50 (BCLXL [1]) [nM] | Ki (BCLXL [2]) [nM] | IC50 (H146 cells) [nM] | Compound
85.3 | 0.1 | < 1 | 205 | Cc1cc(N(C)c2nc(C(=O)O)c(CCCOc3ccccc3)s2)nnc1Nc1nc2ccccc2s1 [Example 63, 2-({6-[(1,3-Benzothiazol-2-yl)amino]-5-methylpyridazin-3-yl}(methyl)amino)-5-(3-phenoxypropyl)-1,3-thiazole-4-carboxylic acid]
> 15000 | 12 | < 1 | > 15000 | Cc1cc(N(CCC(O)CO)c2nc(C(=O)O)cs2)nnc1Nc1nc2ccccc2s1 (stereo not drawn) [Example 85, 2-[[6-(1,3-Benzothiazol-2-ylamino)-5-methyl-pyridazin-3-yl]-(3,4-dihydroxybutyl)amino]thiazole-4-carboxylic acid]
23.3 | 0.023 | < 1 | 201 | Cc1cc(N(C)c2ccc(-c3cnn(CC45CC6CC(CC(C6)C4)C5)c3C)c(C(=O)O)n2)nnc1Nc1nc2ccccc2s1 [Example 90, 3-{1-[(Adamantan-1-yl)methyl]-5-methyl-1H-pyrazol-4-yl}-6-({6-[(1,3-benzothiazol-2-yl)amino]-5-methylpyridazin-3-yl}(methyl)amino)pyridine-2-carboxylic acid]
1130 | 5.3 | 6.4 | 5390 | Cc1cc(N(C)c2nc(C(=O)O)c(C3CCN(c4ccccc4)CC3)s2)nnc1Nc1nc2ccccc2s1 [Example 91, 2-({6-[(1,3-Benzothiazol-2-yl)amino]-5-methylpyridazin-3-yl}(methyl)amino)-5-(1-phenylpiperidin-4-yl)-1,3-thiazole-4-carboxylic acid]
483 | 0.0022 | < 1 | 1190 | Cc1cc(N(C)c2nc(C(=O)O)c(CCCOc3ccc(C#CC[N+](C)(C)CCCS(=O)(=O)[O-])cc3F)s2)nnc1Nc1nc2ccccc2s1 [Example 101, 3-[3-[4-[3-[2-[[6-(1,3-Benzothiazol-2-ylamino)-5-methyl-pyridazin-3-yl]-methyl-amino]-4-carboxy-thiazol-5-yl]propoxy]-3-fluoro-phenyl]prop-2-ynyl-dimethyl-ammonio]propane-1-sulfonate]
46.7 | 0.0066 | < 1 | 22.3 | CNCC#Cc1ccc(OCCCc2sc(N(CCC(O)CO)c3cc(C)c(Nc4nc5ccccc5s4)nn3)nc2C(=O)O)c(F)c1 (stereo not drawn) [Example 108, 2-[[6-(1,3-Benzothiazol-2-ylamino)-5-methyl-pyridazin-3-yl]-(3,4-dihydroxybutyl)amino]-5-[3-[2-fluoro-4-[3-(methylamino)prop-1-ynyl]phenoxy]propyl]thiazole-4-carboxylic acid]
